Test results taken from PubChem BioAssay (NCI).
Several values for one entry are separate records, joined by “and”; a condition that tells them apart may be missing. Identical values can stand only once.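 Where inhibition never reached the appropriate level, the endpoint shown equals the highest concentration tested. Otherwise, values were interpolated linearly from a five-concentration, 48-hour dose response in 96-well plates. Here, GI50 denotes the concentration required for 50% inhibition of growth. TGI marks complete inhibition of growth.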

Legend:
Test in all cases: inhibition of tumour cell growth, NCI panel, 48 h
[1] = system: SNB-78 CNS
[2] = system: HCT-15 colon
[3] = system: TK-10 renal
[4] = system: OVCAR-4 ovarian
[5] = system: SK-OV-3 ovarian
[6] = system: HOP-18 NSCLC
[7] = system: SK-MEL-28 melanoma
[8] = system: HCC-2998 colon
[9] = system: DU-145 prostate
[10] = system: MDA-MB-435

Structure (SMILES)	TGI [1]	TGI [2]	TGI [3]	TGI [4]	TGI [5]	TGI [6]	TGI [7]	TGI [8]	GI50 [1]	GI50 [2]	GI50 [6]	GI50 [7]	GI50 [3]	GI50 [4]	GI50 [5]	GI50 [8]	GI50 [9]	TGI [9]	GI50 [10]	TGI [10]
O=C1C(c2ccccc2)=C(c2ccccc2)C(c2ccc(Sc3ccc(C4=C(c5ccccc5)C(=O)C(c5ccccc5)=C4c4ccccc4)cc3)cc2)=C1c1ccccc1	> 100 µM	> 100 µM	> 100 µM	> 100 µM	> 100 µM	–	–	–	–	–	–	–	–	–	–	–	–	–	–	–
COc1ccc2c(c1)[n+]([O-])c(/C(C)=N/NC(=O)c1ccccc1O)c(C)[n+]2[O-]	> 100 µM	> 100 µM	> 100 µM	> 100 µM	> 100 µM	> 100 µM	> 100 µM	> 100 µM	–	–	–	–	–	–	–	–	–	–	–	–
COc1cc(O)c2c(c1)C(=O)C1=C(C2=O)C(O)C[C@@](C)(O)C1 (some centres undefined)	4.67 µM	3.61 µM	6.14 µM	3.01 µM	17.1 µM	–	3.15 µM	2.91 µM	–	–	–	–	–	–	–	–	–	–	–	–
Cc1ccc(S(=O)(=O)OCCOCCOCCOCCOCCOS(=O)(=O)c2ccc(C)cc2)cc1	> 100 µM	> 100 µM	> 100 µM	> 100 µM	> 100 µM	> 100 µM	> 100 µM	> 100 µM	–	–	–	–	–	–	–	–	–	–	–	–
COc1cccc(C2SCc3nc4ccccc4n32)c1 (centres undefined)	> 100 µM	> 100 µM	55.1 µM	> 100 µM	> 100 µM	> 100 µM	> 100 µM	> 100 µM	–	–	–	–	–	–	–	–	–	–	–	–
Cc1ccc(C2=Nc3ccccc3S(=O)C(c3ccc4c(c3)OCO4)C2)cc1 (centres undefined)	86.9 µM	–	> 100 µM	> 100 µM	91.3 µM	> 100 µM	89.9 µM	> 10 µM	–	–	–	–	–	–	–	–	–	–	–	–
O=C1C(=O)N(c2ccc(Cl)cc2)C(=O)C(=Nc2cccc3c(=O)[nH][nH]c(=O)c23)C1c1nc2ccccc2o1 (centres undefined)	> 100 µM	> 100 µM	> 100 µM	> 100 µM	> 100 µM	> 100 µM	> 100 µM	> 100 µM	–	–	–	–	–	–	–	–	–	–	–	–
CCCCCCCCCCOC(=O)NCCC	–	48.4 µM	> 100 µM	> 100 µM	> 100 µM	> 100 µM	> 100 µM	76.8 µM	–	–	–	–	–	–	–	–	–	–	–	–
O=C(O)c1c2c(cc3c(=O)cc(-c4ccccc4)oc13)CCCC2	> 100 µM	> 100 µM	> 100 µM	> 100 µM	> 100 µM	–	> 100 µM	> 100 µM	–	–	–	–	–	–	–	–	–	–	–	–
CC[PH+](CC)CC.CC[PH+](CC)CC.[Au]	53.1 µM	25.7 µM	35.7 µM	25.1 µM	35.2 µM	22.1 µM	16.9 µM	35.2 µM	6.82 µM	6.24 µM	8 µM	3.88 µM	19.9 µM	12.5 µM	20.9 µM	20.7 µM	–	–	–	–
O=C(CSSCC(=O)Nc1ccc(Br)cc1)Nc1ccc(Br)cc1	32.5 µM	46.6 µM	30.5 µM	35.4 µM	40 µM	–	32.4 µM	50.6 µM	–	–	–	–	–	–	–	–	–	–	–	–
O=[N+]([O-])C=C1c2ccccc2-c2ccccc21	31.1 µM	38.7 µM	32.3 µM	28.2 µM	–	–	31.1 µM	30.6 µM	–	–	–	–	–	–	–	–	–	–	–	–
CN(/N=C\c1ccnc2ccccc12)c1ccccc1	> 100 µM	39.5 µM	98.7 µM	89.4 µM	66 µM	> 100 µM	82.7 µM	–	–	–	–	–	–	–	–	–	–	–	–	–
O=C(CC1(O)C(=O)Nc2c(Cl)cc(Cl)cc21)c1ccc(F)cc1 (centres undefined)	> 100 µM	> 100 µM	> 100 µM	52.6 µM	> 100 µM	> 100 µM	> 100 µM	> 100 µM	–	–	–	–	–	–	–	–	–	–	–	–
CCOC(=O)c1cc(NS(=O)(=O)c2ccc(C)cc2)cc(C(=O)OCC)c1	–	> 100 µM	> 100 µM	85.5 µM	> 100 µM	–	93.5 µM	70.8 µM	–	39.6 µM	–	27 µM	> 100 µM	21.2 µM	70.7 µM	19.5 µM	34.9 µM	> 100 µM	33.6 µM	> 100 µM
COc1ccc(Cn2cc3c(c2-c2cc(OC)c(OC)c(OC)c2)CCc2c(CO)noc2-3)cc1	–	27.1 µM	55.2 µM	51.6 µM	31.1 µM	–	24.5 µM	19.2 µM	–	0.315 µM	–	4.35 µM	17.7 µM	4.2 µM	0.428 µM	1.08 µM	0.361 µM	16 µM	0.0605 µM	0.245 µM
CC(C)=NNC(=S)NC12CC3CC(CC(C3)C1)C2	> 100 µM	> 100 µM	> 100 µM	> 100 µM	> 100 µM	–	> 100 µM	–	–	–	–	–	–	–	–	–	–	–	–	–

Structure (SMILES)	TGI [1]	TGI [2]	TGI [3]	TGI [4]	TGI [5]	TGI [6]	TGI [7]	TGI [8]	GI50 [1]	GI50 [2]	GI50 [6]	GI50 [7]	GI50 [3]	GI50 [4]	GI50 [5]	GI50 [8]	GI50 [9]	TGI [9]	GI50 [10]	TGI [10]
Cc1[nH]nc2ncc(C(=O)N3CCC[C@H]3c3ccc(Cl)cc3)cc12	–	> 100 µM	> 100 µM	> 100 µM	> 100 µM	–	> 100 µM	> 100 µM	–	58.3 µM	–	> 100 µM	94.2 µM	96.6 µM	> 100 µM	> 100 µM	> 100 µM	> 100 µM	98.1 µM	> 100 µM
c1ccc2c(CNCCCCCCCCNCc3cccc4ccccc34)cccc2c1	4.45 µM	3.38 µM	5.53 µM	5.28 µM	30.9 µM	18.5 µM	3.32 µM	–	–	–	–	–	–	–	–	–	–	–	–	–
COc1cc(/C=C/C(=O)c2c(-c3ccc(F)cc3)nc3sc(C)nn23)cc(OC)c1OC	–	5.46 µM	8.14 µM	85.6 µM	8.91 µM	–	4.9 µM	3.96 µM	–	2 µM	–	2.19 µM	2.92 µM	3.61 µM	2.99 µM	2.12 µM	2.91 µM	10.4 µM	3.35 µM	13 µM
O=S(=O)(NCCCNc1cc(-c2cn(-c3ccccc3)nc2-c2cccc(O)c2)ccn1)c1ccc(Br)cc1	–	3.51 µM	10.2 µM	8.65 µM	9.3 µM	–	4.31 µM	3.78 µM	–	1.32 µM	–	1.97 µM	3.35 µM	1.86 µM	2.76 µM	2 µM	2.45 µM	8.08 µM	1.7 µM	3.53 µM
CC/C=C\C[C@H](O)C/C=C1/C(=O)C=C[C@@H]1C/C=C\CCCCO	–	4.57 µM	9.22 µM	18.7 µM	29.2 µM	–	6.87 µM	3.38 µM	–	1.58 µM	–	2.39 µM	3.31 µM	3.55 µM	5.08 µM	1.83 µM	4 µM	15.2 µM	3.48 µM	15.8 µM
Cc1ccccc1C(C(=O)NC1CCCCC1)N(C(=O)CNc1ncccc1F)c1cccc(F)c1 (centres undefined)	–	> 100 µM	> 100 µM	> 100 µM	> 61 µM	–	> 100 µM	> 100 µM	–	> 100 µM	–	> 100 µM	> 56.4 µM	> 23.6 µM	20.8 µM	> 100 µM	> 100 µM	> 100 µM	> 100 µM	> 100 µM
Cc1ccc(Sc2ccccc2N)cc1	> 100 µM	> 100 µM	> 100 µM	> 100 µM	> 100 µM	> 100 µM	> 100 µM	> 100 µM	–	–	–	–	–	–	–	–	–	–	–	–
N#CCc1nnc(N)o1	> 100 µM	> 100 µM	> 100 µM	–	> 100 µM	–	> 100 µM	–	–	–	–	–	–	–	–	–	–	–	–	–
Oc1ccccc1/C=N\NC(=S)N/N=C/c1ccccc1O	–	> 100 µM	53.3 µM	46.7 µM	> 100 µM	–	> 100 µM	> 100 µM	–	0.589 µM	–	4.14 µM	4.62 µM	0.64 µM	4.28 µM	3.62 µM	2.95 µM	61 µM	1.97 µM	25.3 µM
O=C(O)c1cn(C2CC2)c2cc(N3CCN(Cc4c(O)ccc5ccccc45)CC3)c(F)cc2c1=O	–	> 100 µM	8.38 µM	> 100 µM	> 100 µM	–	> 100 µM	> 100 µM	–	3.64 µM	–	6.32 µM	2.66 µM	7 µM	11.7 µM	> 100 µM	3.78 µM	> 100 µM	4.18 µM	> 100 µM
O=C1CC(N2C(=O)/C(=C/C(Cl)=C\c3ccc([N+](=O)[O-])cc3)SC2=S)C(=O)N1c1ccc(O)cc1 (centres undefined)	–	1.95 µM	3.79 µM	17.3 µM	9.26 µM	–	4.2 µM	2.92 µM	–	0.472 µM	–	1.95 µM	1.92 µM	5.13 µM	2.99 µM	1.48 µM	1.72 µM	3.37 µM	2.01 µM	4.34 µM
COc1cc(C2CC(=O)Nc3c2c(C)nn3-c2nc3ccccc3[nH]2)cc(OC)c1O (centres undefined)	–	> 100 µM	7.67 µM	11.4 µM	5.9 µM	–	6.58 µM	35.7 µM	–	3.69 µM	–	2.4 µM	2.84 µM	2.43 µM	2.7 µM	6.48 µM	4.98 µM	40.3 µM	1.98 µM	4.42 µM
COC12OCCN(C)C1=CC(=O)C1(C)N=NCC12 (centres undefined)	> 100 µM	> 100 µM	> 100 µM	–	> 100 µM	> 100 µM	> 100 µM	> 100 µM	–	–	–	–	–	–	–	–	–	–	–	–
COc1ccc(-c2cn(-c3cc(OC)c(OC)c(OC)c3)c(=O)[nH]2)cc1OC	–	> 100 µM	> 100 µM	> 100 µM	> 100 µM	–	> 100 µM	> 100 µM	–	> 100 µM	–	> 100 µM	> 100 µM	> 100 µM	> 100 µM	> 100 µM	> 100 µM	> 100 µM	> 100 µM	> 100 µM
CCOC(=O)C1SC(=Nc2ccc(Cl)cc2Cl)N=C1C (centres undefined)	> 100 µM	> 100 µM	> 100 µM	70.1 µM	–	> 100 µM	> 100 µM	> 100 µM	–	–	–	–	–	–	–	–	–	–	–	–
COC(=O)[C@@H](C)C[C@H](Cc1ccccc1)NC(=O)c1csc([C@@H](C[C@H](C(C)C)N(C)C(=O)[C@@H](NC(=O)[C@H]2CCCN2C)C2CC2)OC(C)=O)n1	–	> 25 µM	> 25 µM	> 25 µM	> 25 µM	–	–	> 25 µM	–	0.00495 µM and 0.0025 µM	–	0.0324 µM	–	–	0.0083 µM and 0.0025 µM	0.00431 µM and 0.0025 µM	0.000446 µM and 0.0025 µM	> 25 µM	< 0.0025 µM	0.00049 µM and < 0.0025 µM
